Source: patent US11235020B2, “Methods and compositions for inhibiting glyoxalase 1 (GLO1)” (priority 2013, dated 2022)

Tests used:
[1] = system: anxiety-like behavior in B6 mice; assay: Light-dark (LD) box test; format: in vivo, mouse; settings: MG 50 mg/kg i.p.
Experimental: (§1) LD box test: Mice were placed in the light compartment, and activity was monitored for 4 minutes. The light compartment was illuminated to approximately 1,000 lux, and the dark compartment was illuminated to approximately 5 lux. Behavior was recorded and automatically scored by the Noldus Ethovision System.
as §1, with “Ten minutes post-injection, mice” for “Mice”, “three” for “4”

[2] = system: CD-1 mice; assay: Accelerating rotarod; format: in vivo, mouse; settings: MG 300 mg/kg
Experimental: On day 1, mice were trained on the rotarod for five consecutive trials. […] The latency to fall and the rotarod speed at the time of the fall were recorded.

[3] = system: GABAA receptors in hippocampal neurons; assay: Whole-cell patch clamp in hippocampal neurons (HN); format: cell-based, rat
Experimental: Reagents: All reagents were obtained from Sigma-Aldrich.
Neurons were maintained in neurobasal medium with B27 supplement and glutamax in a humidified atmosphere with 5% CO2 at 37° C.
Filter and sampling frequencies were 5 and 25 kHz, respectively, for voltage-clamp experiments and 1 and 10 kHz, respectively, for current-clamp recording. Experiments were performed at 32° C. using a feedback-controlled heated perfusion system (Warner Instruments). Vm, ligand-gated currents, and potassium channel currents were studied in a bath solution containing 1 mM CaCl2, 1 mM MgCl2, 4 mM KCl, 140 mM NaCl, 5 mM glucose, and 10 mM HEPES (pH 7.4). […] Electrodes were coated with Sigmacote (Sigma) prior to use.
Ligand-gated currents: Ligand-gated currents were studied in voltage-clamp mode by application of reagents to cells held at −50 mV.

[4] = system: glycine receptors; assay: Glycinergic currents in CGN; format: cell-based, rat; settings: 10 μM MG
Description: Ligand-gated currents: Ligand-gated currents were studied in voltage-clamp mode by application of reagents to cells held at −50 mV. GABAergic and glycinergic currents were activated by application of GABA and glycine and antagonized by application of SR and strychnine, respectively (Kaneda 1995). Glutamatergic currents were activated by 1-glutamate and antagonized by CNQX and AP-5 (Wyllie 1994).

[5] = system: picrotoxin-induced seizures; assay: Picrotoxin-induced seizures, behavioral scoring; format: in vivo, mouse; settings: MG 50 and 200 mg/kg pre-treatment, picrotoxin 5 mg/kg
Experimental: Drug administration: All experiments with MG utilized crude MG obtained from Sigma-Aldrich. For pre-treatment, MG (50 or 200 mg/kg) or vehicle (0.9% saline) was administered by i.p. injection 10 minutes before the seizure-inducing agent. For treatment after seizure onset, MG (200 mg/kg) or vehicle (0.9% saline) was administered by i.p. injection ten minutes after seizure onset. For GLO1 inhibition, BrBzGCp2 (50 mg/kg) or vehicle (8% DMSO and 18% Tween-80) was administered by i.p. injection two hours before seizure induction.
Seizure induction: For picrotoxin-induced seizures, 5 mg/kg of picrotoxin in 0.9% saline was administered by i.p. injection. Seizures were scored for one hour after picrotoxin administration. For pilocarpine-induced seizures, mice were pre-treated with atropine (5 mg/kg in 0.9% saline) by i.p. injection in order to reduce the peripheral effects of pilocarpine. Thirty minutes after atropine administration, pilocarpine was administered by i.p. injection. B6 mice were treated with 250 mg/kg pilocarpine in 0.9% saline, and FVB mice (WT and Tg) were treated with 300 mg/kg pilocarpine in 0.9% saline. Seizures were scored for 90 minutes after pilocarpine administration.
Seizure scoring: Picrotoxin-induced seizures were scored as the presence of generalized convulsions as well as the latency to and duration of generalized convulsions.

[6] = system: depression-like behavior in mice; settings: intracerebroventricular MG for six days (Hambsch 2010); cited from earlier work
[7] = system: neuronal cell death; settings: literature (Di Loreto 2008; Di Loreto 2004; Li 2010); cited from earlier work
[8] = system: mice; assay: Observation of sedation or gross deficits in treated mice; settings: MG 300 mg/kg, WT B6 mice, data not shown
[9] = system: anxiety-like behavior in C57BL6/J mice; assay: OFT after bilateral microinjection into the basolateral amygdala (BLA); settings: MG 12 uM or 24 uM, 0.5 ul bilateral into BLA, over 30 m

**Q.** What does the source list for `CC(=O)C=O` [MG, methylglyoxal]?
**A.** number of transitions between compartments [1]: without affecting the number of transitions; time spent in the light compartment ([1]; 10 min post-injection): increased time spent in the light compartment; speed at fall from accelerating rotarod (ataxia) [2]: fell from an accelerating rotarod at slower speeds than vehicle-treated mice; peak response versus GABA in hippocampal neurons [3]: approximately one-third of those evoked by GABA; activation of glycine receptors [4]: did not activate; duration of generalized convulsions [5]: reduced seizure duration; percentage of mice undergoing generalized convulsions [5]: reduced the percentage of mice undergoing generalized convulsions; latency to first generalized convulsion (seizure onset) ([5]; dose-dependent): delayed seizure onset; immobility in the TST [6]: reduced immobility in the TST; MG concentrations that induce neuronal cell death in vitro [7]: 100-1,000 μM; sedation [8]: caused sedation; center duration in the OFT [9]: increased center duration in the OFT
